Test results reported in ChEMBL document CHEMBL6096642 (Eur J Med Chem, 2025).
Values belong to the molecule of their own block, whether it stands above or below them. The source made the active and inactive calls. The rule behind the calls is not given here.

Legend:
Rattus norvegicus [1] = species on record: Rattus norvegicus; assay: Selectivity index, ratio of IC50 for male Wistar rat kidney ALR1 using D-glucuronate as substrate to IC50 for male Wistar rat lens ALR2 using D,L-glyceraldehyde as substrate
[2] = biological target: T1, Tyrosine-protein phosphatase non-receptor type 1 (Homo sapiens) (UniProt P18031); assay: (§1) Inhibition of polyhis-tagged recombinant human PTP1B (1 to 303 residues) extracted from Escherichia coli BL21 (DE3) pLysS using p-nitro-phenyl phosphate as substrate at 10 uM preincubated for 15 mins followed by substrate addition and measured after 15 mins by absorbance based analysis relative to control; conditions: time 30.0 min
T1 sequence (whole entry): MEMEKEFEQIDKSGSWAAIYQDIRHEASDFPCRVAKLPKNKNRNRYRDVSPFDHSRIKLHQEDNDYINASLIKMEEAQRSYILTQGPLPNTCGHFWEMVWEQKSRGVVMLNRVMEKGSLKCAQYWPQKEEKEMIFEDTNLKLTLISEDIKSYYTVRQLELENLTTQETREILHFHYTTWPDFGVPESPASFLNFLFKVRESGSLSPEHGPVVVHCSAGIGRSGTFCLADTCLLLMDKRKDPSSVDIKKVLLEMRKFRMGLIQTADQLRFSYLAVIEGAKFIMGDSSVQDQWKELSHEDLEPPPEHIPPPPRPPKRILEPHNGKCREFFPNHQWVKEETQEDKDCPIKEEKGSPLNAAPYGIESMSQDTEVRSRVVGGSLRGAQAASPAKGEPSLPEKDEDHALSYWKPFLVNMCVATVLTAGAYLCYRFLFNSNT

[3] = biological target: T2, Tyrosine-protein phosphatase non-receptor type 1 (Homo sapiens, UniProt P18031); assay: Inhibition of polyhis-tagged recombinant human PTP1B (1 to 303 residues) extracted from Escherichia coli BL21 (DE3) pLysS using p-nitro-phenyl phosphate as substrate assessed as substrate hydrolysis by measuring p-nitrophenolate release by absorbance based analysis
T2 sequence (P18031 whole entry): T1 sequence (whole entry)

[4] = biological target: T3, Aldo-keto reductase family 1 member A1 (Rattus norvegicus, UniProt P51635); assay: Inhibition of male Wistar rat kidney ALR1 using D-glucuronate as substrate assessed as NADPH consumption by spectrophotometric analysis
T3 sequence (P51635 whole entry): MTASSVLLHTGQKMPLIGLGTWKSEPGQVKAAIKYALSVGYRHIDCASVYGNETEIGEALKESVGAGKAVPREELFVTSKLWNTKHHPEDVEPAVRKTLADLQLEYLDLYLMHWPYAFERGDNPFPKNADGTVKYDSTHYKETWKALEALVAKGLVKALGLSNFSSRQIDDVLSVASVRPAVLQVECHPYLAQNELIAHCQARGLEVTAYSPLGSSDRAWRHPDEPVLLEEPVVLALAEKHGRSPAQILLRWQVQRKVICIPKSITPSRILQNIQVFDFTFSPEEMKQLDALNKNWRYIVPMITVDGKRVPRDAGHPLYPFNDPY

[5] = biological target: Aldo-keto reductase family 1 member B1 (Rattus norvegicus) (UniProt P07943); assay: Inhibition of male Wistar rat lens ALR2 using D,L-glyceraldehyde as substrate assessed as NADPH consumption at 10 uM by spectrophotometric analysis relative to control
[6] = biological target: T1, Tyrosine-protein phosphatase non-receptor type 1 (Homo sapiens); assay: as §1, with “50” for “10”; conditions: time 30.0 min
[7] = biological target: T4, Tyrosine-protein phosphatase non-receptor type 2 (Homo sapiens, UniProt P17706); assay: Inhibition of polyHis-tagged recombinant human TCPTP (1 to 415 residues) extracted from Escherichia coli BL21 (DE3) pLysS using p-nitro-phenyl phosphate as substrate assessed as substrate hydrolysis by measuring p-nitrophenolate release by absorbance based analysis
T4 sequence (P17706 whole entry): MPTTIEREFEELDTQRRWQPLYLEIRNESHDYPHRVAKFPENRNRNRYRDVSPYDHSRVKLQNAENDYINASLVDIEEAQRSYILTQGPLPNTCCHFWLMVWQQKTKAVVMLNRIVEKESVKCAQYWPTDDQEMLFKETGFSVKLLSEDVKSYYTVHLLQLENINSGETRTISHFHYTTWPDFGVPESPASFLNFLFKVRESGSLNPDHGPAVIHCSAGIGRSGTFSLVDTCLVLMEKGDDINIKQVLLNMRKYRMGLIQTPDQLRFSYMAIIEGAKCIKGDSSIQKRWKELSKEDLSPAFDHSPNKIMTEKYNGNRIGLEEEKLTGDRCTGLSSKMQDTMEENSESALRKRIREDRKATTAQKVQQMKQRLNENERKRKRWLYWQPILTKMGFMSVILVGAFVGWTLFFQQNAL

[8] = biological target: T1, Tyrosine-protein phosphatase non-receptor type 1 (Homo sapiens); assay: Irreversible inhibition of polyhis-tagged recombinant human PTP1B (1 to 303 residues) extracted from Escherichia coli BL21 (DE3) pLysS at 200 uM incubated for 1 hrs and measured after dilution
Homo sapiens = species on record: Homo sapiens; assay: Selectivity index, ratio of IC50 for polyHis-tagged recombinant human TCPTP (1 to 415 residues) extracted from Escherichia coli BL21 (DE3) pLysS using p-nitro-phenyl phosphate as substrate to IC50 for polyhis-tagged recombinant human PTP1B (1 to 303 residues) extracted from Escherichia coli BL21 (DE3) pLysS using p-nitro-phenyl phosphate as substrate
[9] = biological target: Aldo-keto reductase family 1 member B1 (Rattus norvegicus) (UniProt P07943); assay: Inhibition of male Wistar rat lens ALR2 using D,L-glyceraldehyde as substrate assessed as NADPH consumption at 1 uM by spectrophotometric analysis relative to control
[10] = biological target: Aldo-keto reductase family 1 member B1 (Rattus norvegicus, UniProt P07943); assay: Inhibition of male Wistar rat lens ALR2 using D,L-glyceraldehyde as substrate assessed as NADPH consumption by spectrophotometric analysis
[11] = Selectivity index, ratio of IC50 for TCPTP (unknown origin) extracted from Escherichia coli BL21 TB1 using p-nitro-phenyl phosphate as substrate to IC50 for human PTP1B extracted from Escherichia coli BL21 TB1 using p-nitro-phenyl phosphate as substrate
Rattus norvegicus [12] = species on record: Rattus norvegicus; assay: Selectivity index, ratio of IC50 for rat kidney ALR1 to IC50 for rat lens ALR2
C2C12 [13] = assay: Effect on mitochondrial mass in mouse C2C12 cells at 25 to 50 uM incubated for 72 hrs by Mitotracker green based flow cytometric analysis; type: functional, cell-based; conditions: dose 25-50 µM
[14] = biological target: T3, Aldo-keto reductase family 1 member A1; assay: Inhibition of rat kidney ALR1; type: tissue-based
C2C12 [15] = assay: Reduction in maximal respiration rate in mouse C2C12 cells assessed as decrease in coupling efficiency at 25 uM incubated for 24 hrs by Seahorse XF cell mito stress analysis; type: functional, cell-based
C2C12 [16] = assay: Induction of mitochondrial uncoupling activity in mouse C2C12 cells assessed as decrease in oxygen-dependent ATP production at 25 uM incubated for 30 mins by Seahorse XF cell mito stress analysis; type: functional, cell-based
C2C12 [17] = assay: Reduction in proton leak in mouse C2C12 cells assessed as decrease in coupling efficiency at 25 uM incubated for 24 hrs by Seahorse XF cell mito stress analysis; type: functional, cell-based
C2C12 [18] = assay: Induction of mitochondrial uncoupling activity in mouse C2C12 cells assessed as increase in proton leak at 25 uM incubated for 30 mins by Seahorse XF cell mito stress analysis; type: functional, cell-based
C2C12 [19] = assay: Effect on basal respiration rate in mouse C2C12 cells assessed as decrease in coupling efficiency at 25 uM incubated for 30 mins by Seahorse XF cell mito stress analysis; type: functional, cell-based
C2C12 [20] = assay: Induction of glucose uptake in mouse C2C12 cells assessed as increase in 2-NDBG uptake at 25 to 50 uM incubated for 30 mins by flow cytometric analysis; type: functional, cell-based; conditions: dose 25-50 µM
C2C12 [21] = assay: Reduction in oxygen-dependent ATP production in mouse C2C12 cells assessed as decrease in coupling efficiency at 25 uM incubated for 24 hrs by Seahorse XF cell mito stress analysis; type: functional, cell-based
C2C12 [22] = assay: Cytotoxicity against mouse C2C12 cells assessed as reduction in cell viability at 1 uM measured after 48 hrs by MTT assay; type: toxicity, cell-based; conditions: c2c12, 48 h
C2C12 [23] = assay: Effect on mitochondrial mass in mouse C2C12 cells at 25 uM incubated for 72 hrs by Mitotracker green based flow cytometric analysis; type: functional, cell-based
C2C12 [24] = assay: Induction of Akt phosphorylation in mouse C2C12 cells at 25 uM incubated for 30 mins in presence of insulin by Western blot analysis; type: cell-based
C2C12 [25] = assay: Effect on couple efficiency in mouse C2C12 cells assessed as decrease in coupling efficiency at 25 uM incubated for 24 hrs by Seahorse XF cell mito stress analysis; type: functional, cell-based
C2C12 [26] = assay: Effect on maximal respiration rate in mouse C2C12 cells assessed as decrease in coupling efficiency at 25 uM incubated for 30 mins by Seahorse XF cell mito stress analysis; type: functional, cell-based
Mitochondrial membrane = assay: Induction of mitochondrial membrane potential loss in mouse C2C12 cells at 25 uM incubated for 0.5 to 50 hrs by TMRE probe based flow cytometric analysis; conditions: time 0.5-50 hrs
C2C12 [27] = assay: Induction of mitochondrial uncoupling activity in mouse C2C12 cells assessed as decrease in coupling efficiency at 25 uM incubated for 30 mins by Seahorse XF cell mito stress analysis; type: functional, cell-based
C2C12 [28] = assay: Enhancement of […] glucose uptake in mouse C2C12 cells assessed as increase in 2-NDBG uptake at 25 to 50 uM preincubated for 30 mins followed by insulin addition and measure after 30 mins by flow cytometric analysis; type: functional, cell-based; conditions: dose 25-50 µM, time 60.0 min
C2C12 [29] = assay: Induction of glucose uptake in mouse C2C12 cells assessed as decrease in glucose concentration in cell culture medium at 25 to 50 uM incubated for 24 hrs by BGSTAR glucometric analysis; type: functional, cell-based; conditions: dose 25-50 µM
C2C12 [30] = assay: Reduction in basal respiration rate in mouse C2C12 cells assessed as decrease in coupling efficiency at 25 uM incubated for 24 hrs by Seahorse XF cell mito stress analysis; type: functional, cell-based
C2C12 [31] = assay: Reduction of mitochondrial mass in mouse C2C12 cells at 25 uM incubated for 72 hrs by Mitotracker green based flow cytometric analysis; type: functional, cell-based
C2C12 [32] = assay: Induction of mitochondrial uncoupling activity in mouse C2C12 cells assessed as decrease in sparse capacity at 25 uM incubated for 30 mins by Seahorse XF cell mito stress analysis; type: functional, cell-based
C2C12 [33] = assay: Effect on sparse capacity in mouse C2C12 cells assessed as decrease in coupling efficiency at 25 uM incubated for 24 hrs by Seahorse XF cell mito stress analysis; type: functional, cell-based
C2C12 [34] = assay: Induction of Akt phosphorylation in mouse C2C12 cells at 25 uM incubated for 30 mins by Western blot analysis; type: cell-based

Ratio IC50 (Rattus norvegicus [1]): 290 | inhibition [2]: 18.3% | IC50 [3]: 42.8 µM | IC50 [4]: 7.54 µM | inhibition [5]: > 92% | inhibition [6]: 49.6% | IC50 [7]: 47.1 µM | inhibition [8]: Active | Ratio IC50 (Homo sapiens): 1.1 | inhibition [9]: > 70% | IC50 [10]: 0.026 µM
Compound: O=C(O)CN1C(=O)S/C(=C\c2cn(Cc3ccccc3)c3ccccc23)C1=O

Ratio IC50 (Rattus norvegicus [1]): > 80 | inhibition [2]: 0% | IC50 [3]: > 50 µM | IC50 [4]: > 15 µM | inhibition [5]: > 92% | inhibition [6]: 4.4% | inhibition [9]: > 70% | IC50 [10]: 0.187 µM
Compound: O=C(O)CN1C(=O)S/C(=C\c2cn(Cc3ccc(Br)cc3F)c3ccccc23)C1=O

inhibition [2]: 34.5% | Ratio IC50 [11]: 1.3 | inhibition [6]: 95.2%
Compound: O=c1c(O)c(-c2ccc(O)cc2O)oc2cc(O)cc(O)c12

Ratio IC50 (Rattus norvegicus [1]): 787 | inhibition [2]: 0% | IC50 [4]: 14.2 µM | inhibition [5]: > 92% | inhibition [6]: 90.8% | inhibition [9]: > 70% | IC50 [10]: 0.018 µM
Compound: O=C(O)CN1C(=O)S/C(=C\c2cn(Cc3ccc(F)cc3)c3ccccc23)C1=O

Ratio IC50 (Rattus norvegicus [12]): 16
Compound: Cc1ccc(CN2C(=O)C(C(C#N)C(=O)O)c3cc(F)ccc32)cc1 (stereo not given)

Compound: CN(C)C(=N)NC(=N)N
Activity (C2C12 [13]): inactive

IC50 [4]: 2.37 µM | IC50 [14]: 2.14 µM
Compound: CC(/C=C1\SC(=S)N(CC(=O)O)C1=O)=C\c1ccccc1

Ratio IC50 (Rattus norvegicus [1]): > 52 | inhibition [2]: 28.1% | IC50 [3]: 21.3 µM | IC50 [4]: > 15 µM | inhibition [5]: > 92% | inhibition [6]: 62.8% | IC50 [7]: 37.8 µM | inhibition [8]: Active | Ratio IC50 (Homo sapiens): 1.8 | inhibition [9]: > 70% | IC50 [10]: 0.289 µM
Compound: O=C(O)CN1C(=O)S/C(=C\c2cn(Cc3ccc(Cl)cc3Cl)c3ccccc23)C1=O
Activity (C2C12 [15]): Active | Activity (C2C12 [16]): Active | Activity (C2C12 [17]): Active | Activity (C2C12 [18]): Active | Activity (C2C12 [19]): inactive | Activity (C2C12 [20]): Active | Activity (C2C12 [21]): Active | Activity (C2C12 [22]): Toxic | Activity (C2C12 [23]): inactive | Activity (C2C12 [24]): Not active; Compound Acted Neither As An Insulin Mimetic Nor A Sensitizing Agent | Activity (C2C12 [25]): inactive | Activity (C2C12 [26]): inactive | Activity (Mitochondrial membrane): Active; Compound Targets Mitochondria As An Uncoupling Agent | Activity (C2C12 [27]): Active | Activity (C2C12 [28]): inactive | Activity (C2C12 [29]): Active | Activity (C2C12 [30]): Active | Activity (C2C12 [31]): Active | Activity (C2C12 [32]): Active | Activity (C2C12 [33]): inactive | Activity (C2C12 [34]): Not active; Compound Acted Neither As An Insulin Mimetic Nor A Sensitizing Agent
